Test results as given in patent US9765018B2, “IDO inhibitors” (BRISTOL-MYERS SQUIBB COMPANY, priority 2013, dated 2017).

Assays:
[1] = target: Human IDO1 (Homo sapiens (Human), UniProt P14902); experiment: IDO Kynurenine Assay with Human IDO1/HEK293 Cells; assay type: cell-based; conditions: HEK293 cells with human IDO1; read-out: HEK human IDO-1 (IC50)
Description: IDO Kynurenine Assay with Human IDO1/HEK293 Cells
Human IDO1/HEK293 cells were seeded at 10,000 cells per 50 uL per well with RPMI/phenol red free media contains 10% FBS in a 384-well black wall clear bottom tissue culture plate (Matrix Technologies LLC) 125 nL of certain concentration of compound was then added to each well using ECHO liquid handling systems. The cells were incubated for 20 hours in 37° C. incubator with 5% CO2.
The compound treatments were stopped by adding Trichloroacetic Acid (Sigma-Aldrich) to a final concentration at 0.2%. The cell plate was further incubated at 50° C. for 30 minute. The equal volume supernatant (20 uL) and 0.2% (w/v) Ehrlich reagent (4-dimethylaminobenzaldehyde, Sigma-Aldrich) in glacial acetic acid were mixed in a new clear bottom 384-well plate. This plate was then incubated at room temperature for 30 minute. The absorbance at 490 nm was measured on Envision plate reader.

[2] = target: T1, IDO (Homo sapiens (Human), UniProt P14902); experiment: Kynurenine assay in IFN-γ-stimulated Hela cells; assay type: cell-based; conditions: 20 h, read-out: Hela Kyurenine (IC50)
T1 sequence (P14902 whole entry): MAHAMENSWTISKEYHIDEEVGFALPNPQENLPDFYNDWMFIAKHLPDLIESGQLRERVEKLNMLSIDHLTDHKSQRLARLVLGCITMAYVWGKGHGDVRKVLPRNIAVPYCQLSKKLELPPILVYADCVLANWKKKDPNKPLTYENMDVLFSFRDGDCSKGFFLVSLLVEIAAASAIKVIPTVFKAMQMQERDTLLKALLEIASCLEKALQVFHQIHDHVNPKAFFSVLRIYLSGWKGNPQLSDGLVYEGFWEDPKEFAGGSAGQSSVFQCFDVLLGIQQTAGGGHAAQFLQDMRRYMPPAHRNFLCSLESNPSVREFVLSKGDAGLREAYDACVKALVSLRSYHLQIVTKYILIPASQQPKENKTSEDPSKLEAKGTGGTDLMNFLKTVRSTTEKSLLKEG
In short: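 Hela cells adhered 5-6 h, then received inhibitor (top dose 30 μM, 3-fold dilutions to 1.5 nM) plus 100 ng/mL human IFN-γ to induce IDO, 20 h at 37° C. TCA added, 30 min at 50° C hydrolyses N-formylkynurenine to kynurenine. Supernatant mixed with Ehrlich reagent, 10 min RT, absorbance 490 nm.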

[3] = target: T1, IDO; experiment: LLE_IDO_ABS_DR (IDO assay, method not described)

Human IDO1, sequence (P14902 whole entry): as above

IC50 [1] | IC50 [2] | IC50 [3] | SMILES
6.18 µM | 2420 nM | – | Cc1ccc(NC(=O)Nc2cc(-c3cncc(C(=O)O)c3)cnc2Oc2ccccc2)cc1 [Example 339]
7.5 µM | 1800 nM | – | CC(C)(C)c1ccccc1Oc1ccc(-c2cccc(C(=O)O)c2)cc1NC(=O)Nc1ccc(Cl)cc1 [Example 232, 4′-(2-tert-butylphenoxy)-3′-(3-(4-chlorophenyl)ureido)biphenyl-3-carboxylic acid]
– | 600 nM | 2040 nM | CCCc1ccccc1Oc1ccc(-c2ccc(OC)c(C(=O)O)c2)cc1NC(=O)Nc1cccc(C)c1 [Example 76, 4-methoxy-4′-(2-propylphenoxy)-3′-(3-m-tolylureido)biphenyl-3-carboxylic acid]
– | 50 nM | 240 nM | Cc1ccc(NC(=O)Nc2cc(-c3ccc(Cl)cc3C(=O)O)ccc2Oc2ccccc2C(C)(C)C)cc1 [Example 161, 4′-(2-tert-butylphenoxy)-4-chloro-3′-(3-p-tolylureido)biphenyl-2-carboxylic acid]
– | 930 nM | 10000 nM | COc1ccccc1NC(=O)Nc1cc(-c2cccc(C(=O)O)c2)ccc1Oc1ccccc1C(C)(C)C [Example 227, 4′-(2-tert-butylphenoxy)-3′-(3-(2-methoxyphenyl)ureido)biphenyl-3-carboxylic acid]
– | 390 nM | 2340 nM | COc1ccc(-c2ccc(O[C@@H]3CCCC[C@H]3C)c(NC(=O)Nc3cccc(C)c3)c2)cc1C(=O)O (relative stereo) [Example 138, 4-methoxy-4′-((trans)-2-methylcyclohexyloxy)-3′-(3-m-tolylureido)biphenyl-3-carboxylic acid]
– | 920 nM | 1060 nM | CCCNC(=O)Nc1cc(-c2ccc(OC)c(C(=O)O)c2)ccc1Oc1cccc2c1CCCC2 [Example 118, 4-methoxy-3′-(3-propylureido)-4′-(5,6,7,8-tetrahydronaphthalen-1-yloxy)biphenyl-3-carboxylic acid]
– | 130 nM | 2050 nM | COc1ccc(-c2ccc(Oc3cccc(C(C)(C)C)c3)c(NC(=O)Nc3ccccc3Cl)c2)cc1C(=O)O [Example 110, 4′-(3-tert-butylphenoxy)-3′-(3-(2-chlorophenyl)ureido)-4-methoxybiphenyl-3-carboxylic acid]
– | 240 nM | 770 nM | CCc1ccccc1Oc1ccc(-c2ccc(OC)c(C(=O)O)c2)cc1NC(=O)Nc1cccc(Cl)c1 [Example 58, 3′-(3-(3-chlorophenyl)ureido)-4′-(2-ethylphenoxy)-4-methoxybiphenyl-3-carboxylic acid]
– | 930 nM | 2560 nM | Cc1cccc(NC(=O)Nc2cc(-c3ccc(C(=O)O)c(Cl)c3)ccc2Oc2ccccc2C(C)(C)C)c1 [Example 213, 4′-(2-tert-butylphenoxy)-3-chloro-3′-(3-m-tolylureido) biphenyl-4-carboxylic acid]
– | 820 nM | 1590 nM | COc1ccc(-c2ccc(Oc3ccccc3C(C)(C)C)c(NC(=O)Nc3ccc(OC(F)(F)F)cc3)c2)cc1C(=O)O [Example 66, 4′-(2-tert-butylphenoxy)-4-methoxy-3′-(3-(4-(trifluoromethoxy)phenyl)ureido)biphenyl-3-carboxylic acid]
– | 140 nM | 530 nM | COc1ccc(-c2ccc(Oc3ccccc3C(C)C)c(NC(=O)Nc3ccccc3Cl)c2)cc1C(=O)O [Example 62, 3′-(3-(2-chlorophenyl)ureido)-4′-(2-isopropylphenoxy)-4-methoxybiphenyl-3-carboxylic acid]
– | 1250 nM | 2240 nM | COc1ccc(-c2ccc(Oc3ccccc3C(C)(C)C)c(NC(=O)Nc3ccccc3C)c2)c(C(=O)O)c1 [Example 162, 4′-(2-tert-butylphenoxy)-4-methoxy-3′-(3-o-tolylureido)biphenyl-2-carboxylic acid]
– | 200 nM | 630 nM | COc1ccc(-c2ccc(Oc3ccccc3C(C)C)c(NC(=O)Nc3cccc(C)c3)c2)cc1C(=O)O [Example 65, 4′-(2-isopropylphenoxy)-4-methoxy-3′-(3-m-tolylureido)biphenyl-3-carboxylic acid]
– | 340 nM | 1210 nM | CCCCNC(=O)Nc1cc(-c2ccccc2-c2nnn[nH]2)ccc1Oc1ccccc1C(C)(C)C [Example 191, 1-butyl-3-(4-(2-tert-butylphenoxy)-2′-(1H-tetrazol-5-yl)biphenyl-3-yl)urea]
– | 140 nM | 540 nM | COc1ccc(-c2ccc(Oc3cccc4c3CCCC4)c(NC(=O)Nc3ccc(F)cc3F)c2)cc1C(=O)O [Example 154, 3′-(3-(2,4-difluorophenyl)ureido)-4-methoxy-4′-(5,6,7,8-tetrahydronaphthalen-1-yloxy)biphenyl-3-carboxylic acid]

IC50 [1] | IC50 [2] | IC50 [3] | SMILES
– | 1280 nM | 1920 nM | CC(C)(C)c1ccccc1Oc1ccc(-c2cccc(Cl)c2C(=O)O)cc1NC(=O)Nc1ccccc1Cl [Example 172, 4′-(2-tert-butylphenoxy)-3-chloro-3′-(3-(2-chlorophenyl)ureido)biphenyl-2-carboxylic acid]
– | 150 nM | 270 nM | CC(C)(C)c1ccccc1Oc1ccc(-c2ccccc2-c2nnn[nH]2)cc1NC(=O)Nc1ccccc1 [Example 180, 1-(4-(2-tert-butylphenoxy)-2′-(1H-tetrazol-5-yl)biphenyl-3-yl)-3-phenylurea]
– | 510 nM | 2540 nM | COc1ccc(-c2ccc(Oc3c(C)cccc3C(C)(C)C)c(NC(=O)Nc3ccccc3Cl)c2)cc1C(=O)O [Example 54, 4′-(2-tert-butyl-6-methylphenoxy)-3′-(3-(2-chlorophenyl)ureido)-4-methoxybiphenyl-3-carboxylic acid]
– | 640 nM | 680 nM | Cc1ccccc1NC(=O)Nc1cc(-c2ccccc2C(=O)O)ccc1Oc1ccccc1C(C)(C)C [Example 156, 4′-(2-tert-butylphenoxy)-3′-(3-o-tolylureido)biphenyl-2-carboxylic acid]
– | 110 nM | 390 nM | COc1ccc(-c2ccc(Oc3cccc(C)c3C)c(NC(=O)Nc3ccccc3C)c2)cc1C(=O)O [Example 121, 4′-(2,3-dimethylphenoxy)-4-methoxy-3′-(3-o-tolylureido)biphenyl-3-carboxylic acid]
– | 370 nM | 1050 nM | COc1ccc(-c2ccc(Oc3cccc(C(C)(C)C)c3)c(NC(=O)Nc3cccc(C)c3)c2)cc1C(=O)O [Example 112, 4′-(3-tert-butylphenoxy)-4-methoxy-3′-(3-m-tolylureido)biphenyl-3-carboxylic acid]
– | 1630 nM | 3070 nM | Cc1ccccc1NC(=O)Nc1cc(-c2cccc(Cl)c2C(=O)O)ccc1Oc1ccccc1C(C)(C)C [Example 173, 4′-(2-tert-butylphenoxy)-3-chloro-3′-(3-o-tolylureido)biphenyl-2-carboxylic acid]
– | 870 nM | 1830 nM | O=C(Nc1ccccc1F)Nc1cc(-c2ccccc2-c2nnn[nH]2)ccc1Oc1cccc2c1CCCC2 [Example 188, 1-(2-fluorophenyl)-3-(4-(5,6,7,8-tetrahydronaphthalen-1-yloxy)-2′-(1H-tetrazol-5-yl)biphenyl-3-yl)urea]
– | 2120 nM | 3680 nM | Cc1cccc(NC(=O)Nc2cc(-c3ccccc3C(=O)O)ccc2Oc2ccccc2C(C)(C)C)c1 [Example 157, 4′-(2-tert-butylphenoxy)-3′-(3-m-tolylureido)biphenyl-2-carboxylic acid]
– | 370 nM | 1440 nM | COc1ccc(-c2ccc(Oc3ccccc3C(C)(C)C)c(NC(=O)Nc3ccccc3Cl)c2)c(-c2nnn[nH]2)c1 [Example 192, 1-(4-(2-tert-butylphenoxy)-4′-methoxy-2′-(1H-tetrazol-5-yl)biphenyl-3-yl)-3-(2-chlorophenyl)urea]
– | 890 nM | 1740 nM | Cc1ccc(NC(=O)Nc2cc(-c3ccc(C(=O)O)nc3)ccc2Oc2ccccc2C(C)(C)C)cc1 [Example 178, 5-(4-(2-tert-butylphenoxy)-3-(3-p-tolylureido)phenyl)picolinic acid]
– | 380 nM | 16700 nM | COc1ccc(-c2cnc(Oc3ccccc3C(C)(C)C)c(NC(=O)Nc3cccc(C)c3)c2)cc1C(=O)O [Example 334]
– | 160 nM | 470 nM | COc1ccc(-c2ccc(Oc3ccccc3C(C)(C)C)c(NC(=O)Nc3ccc(C)cc3)c2)c(C(=O)O)c1 [Example 163, 4′-(2-tert-butylphenoxy)-4-methoxy-3′-(3-p-tolylureido)biphenyl-2-carboxylic acid]
– | 200 nM | 420 nM | Cc1ccc(NC(=O)Nc2cc(-c3ccc(C(F)(F)F)cc3C(=O)O)ccc2Oc2ccccc2C(C)(C)C)cc1 [Example 177, 4′-(2-tert-butylphenoxy)-3′-(3-p-tolylureido)-4-(trifluoromethyl)biphenyl-2-carboxylic acid]
– | 760 nM | 1110 nM | COc1ccc(-c2cnc(Oc3ccccc3C(C)(C)C)c(NC(=O)Nc3ccccc3Cl)c2)cc1C(=O)O [Example 336]
– | 970 nM | 3850 nM | COc1ccc(-c2ccc(Oc3cccc4c3OC(C)(C)C4)c(NC(=O)Nc3cccc(C)c3)c2)cc1C(=O)O [Example 140, 4′-(2,2-dimethyl-2,3-dihydrobenzofuran-7-yloxy)-4-methoxy-3′-(3-m-tolylureido)biphenyl-3-carboxylic acid]
